Reference: paper PMC11584170 (ACS chemical biology, 2023)

How the values were obtained:
[1] = biological target: T1, ERRγ (Homo sapiens, UniProt P62508); test: full-length ERR cell-based cotransfection/reporter assay in HEK293 cells; conditions: full-length ERR cotransfection
T1 sequence (P62508 1-458): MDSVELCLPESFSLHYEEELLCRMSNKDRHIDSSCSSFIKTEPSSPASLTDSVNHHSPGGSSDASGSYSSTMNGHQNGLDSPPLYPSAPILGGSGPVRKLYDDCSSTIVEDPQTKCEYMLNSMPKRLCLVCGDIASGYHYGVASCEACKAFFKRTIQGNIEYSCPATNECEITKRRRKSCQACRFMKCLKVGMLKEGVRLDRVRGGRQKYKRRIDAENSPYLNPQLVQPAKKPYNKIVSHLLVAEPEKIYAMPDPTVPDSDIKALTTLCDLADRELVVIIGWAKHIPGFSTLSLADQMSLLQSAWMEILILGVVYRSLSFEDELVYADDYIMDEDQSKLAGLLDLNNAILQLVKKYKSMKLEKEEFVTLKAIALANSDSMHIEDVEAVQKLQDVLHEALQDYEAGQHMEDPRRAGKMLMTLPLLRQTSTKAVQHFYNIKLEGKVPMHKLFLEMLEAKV

[2] = biological target: T2, ERRα (Homo sapiens, UniProt P11474); test: as above
T2 sequence (P11474 1-423): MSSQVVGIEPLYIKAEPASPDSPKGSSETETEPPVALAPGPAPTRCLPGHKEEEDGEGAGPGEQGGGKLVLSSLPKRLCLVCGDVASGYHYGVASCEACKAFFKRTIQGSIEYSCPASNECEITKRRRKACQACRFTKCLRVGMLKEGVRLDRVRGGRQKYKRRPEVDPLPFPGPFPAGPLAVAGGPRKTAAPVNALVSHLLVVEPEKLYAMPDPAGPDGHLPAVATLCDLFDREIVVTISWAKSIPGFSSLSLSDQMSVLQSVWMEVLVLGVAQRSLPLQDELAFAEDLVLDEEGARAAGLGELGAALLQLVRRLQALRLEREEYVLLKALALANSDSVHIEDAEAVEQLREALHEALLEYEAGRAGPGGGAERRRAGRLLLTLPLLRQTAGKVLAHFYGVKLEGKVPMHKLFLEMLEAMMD

[3] = biological target: T3, ERRβ (Homo sapiens, UniProt O95718); test: as above; conditions: read-out: ERRβ EC50
T3 sequence (O95718 1-433): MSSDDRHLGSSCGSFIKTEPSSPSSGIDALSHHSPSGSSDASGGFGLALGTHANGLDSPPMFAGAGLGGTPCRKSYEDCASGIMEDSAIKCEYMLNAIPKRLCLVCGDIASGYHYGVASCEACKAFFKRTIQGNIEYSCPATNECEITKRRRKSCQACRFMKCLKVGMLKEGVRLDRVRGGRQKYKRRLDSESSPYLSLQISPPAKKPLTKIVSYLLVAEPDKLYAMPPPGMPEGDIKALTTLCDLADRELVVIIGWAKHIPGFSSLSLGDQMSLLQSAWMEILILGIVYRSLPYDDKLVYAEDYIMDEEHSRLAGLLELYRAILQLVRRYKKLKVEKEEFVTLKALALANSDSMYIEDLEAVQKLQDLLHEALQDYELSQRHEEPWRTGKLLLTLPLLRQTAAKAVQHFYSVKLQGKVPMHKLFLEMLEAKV

[4] = test system: Gal4-ERR LBD; test: Gal4-ERR LBD chimeric cotransfection assay; type: cell-based
[5] = biological target: T4, ERRγ LBD (Homo sapiens, UniProt P62508); test: differential scanning fluorimetry; conditions: direct binding
T4 sequence (P62508 233-457 limits assumed): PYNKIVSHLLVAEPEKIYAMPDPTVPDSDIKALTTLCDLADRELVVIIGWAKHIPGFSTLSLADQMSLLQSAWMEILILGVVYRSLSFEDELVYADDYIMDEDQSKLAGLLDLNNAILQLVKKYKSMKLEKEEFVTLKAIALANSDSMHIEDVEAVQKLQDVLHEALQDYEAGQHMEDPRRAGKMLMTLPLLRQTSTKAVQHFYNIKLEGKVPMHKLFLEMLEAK

[6] = test system: C2C12 cells; test: ERR target gene; type: cell-based, mouse; conditions: C2C12, 24 h dose-response
[7] = test system: C2C12 cells; test: MitoTracker Red staining of C2C12 cells; type: cell-based, mouse; conditions: proliferating C2C12, 10 μM, 24 h
[8] = tolerability in mice, 10 days dosing; type: in vivo
[9] = test system: C57BL/6J mice; test: chronic treatment, skeletal muscle histology and protein/gene expression; type: in vivo
[10] = test system: C57BL6/J mice; test: exercise until exhaustion on rodent treadmill, WT mice; type: in vivo; conditions: sedentary mice, 7 days b.i.d. i.p. 50 mg/kg, run to exhaustion
[11] = test system: mice; test: grip strength test; type: in vivo; conditions: sedentary mice, 50 mg/kg, 2 weeks
[12] = test system: mice; test: circadian locomotor activity; type: in vivo; conditions: drug treatment
[13] = test system: C57BL/6J male mice; test: acute single dose, Ddit4 and Slc25a25 expression in skeletal muscle; type: in vivo
[14] = test system: C2C12 cells; test: Ddit4 gene expression in C2C12 myoblast cell line; type: cell-based, mouse; conditions: C2C12, 10 μM, 1 or 3 h
[15] = test system: primary mouse myocytes; test: Ddit4 and Slc25a25 expression in primary myocytes; type: cell-based
[16] = test system: mERRα fl/fl and mERRα−/− mice; test: exercise endurance in muscle-specific ERRα KO mice; type: in vivo
[17] = model of heart failure ref 38; cited from earlier work
[18] = 50 mg/kg b.i.d., gastrocnemius muscle
[19] = 14 days b.i.d., i.p, 50 mg/kg, exercise until exhaustion
[20] = quadricep, not induced in mERRα−/−

CC/C(=C(\c1ccc(O)cc1)c1ccc(OCCN(C)C)cc1)c1ccccc1 [4-hydroXytamoXifen]
inhibition of ERRγ constitutive activity [1]: ~75%

CC(C)c1ccc(/C=N/NC(=O)c2ccc(O)cc2)cc1 [GSK4716]
ERRα agonist activity ([2]; ERR cotransfection assay): very weak agonist activity | EC50 ([2]; read-out: ERRα EC50, full-length ERR, HEK293): > 5 µM | EC50 [3]: > 5 µM

O=C(N/N=C/c1ccc2ccccc2c1)c1ccc(O)cc1 [SLU-PP-332, (E)-4-Hydroxy-N′-(naphthalen-2-ylmethylene)benzohydrazide]
activity at ERRs [4]: displayed activity at all ERRs | thermal stability of purified ERRγ LBD [5]: dose-dependently increased the thermal stability | expression of Pdk4 [6]: clear increase | mitochondrial biogenesis (MitoTracker Red) [7]: substantially induced | complete blood count and electrolyte levels ([8]; 50 mg/kg b.i.d., i.p., 10 days): normal | overt toxicity ([8]; 50 mg/kg b.i.d., i.p., 10 days): no overt toxicity | serum creatine kinase ([8]; skeletal muscle toxicity marker): no significant alterations | oxidative muscle phenotype (SDH staining) ([9]; 50 mg/kg b.i.d. i.p., 15 days, quadricep): greater SDH staining | myofiber diameter (laminin staining) ([9]; 50 mg/kg b.i.d., 15 days): smaller in diameter | complex I (NDUFB8) and complex V (ATP5A) expression [9, 18]: increase | cytochrome c protein expression [9, 18]: increase | Myosin IIA protein (western blot) ([9]; quadriceps): increased expression | expression of Myh6 ([9]; quadriceps): increase | oxidative type IIa muscle fibers ([9]; quadriceps, 50 mg/kg b.i.d.): increased | mitochondria content (electron micrographs of quadriceps) ([9]; vs vehicle-treated): increase | increase in running distance vs vehicle [10]: ~45% | increase in running time vs vehicle [10]: ~70% | grip strength [11]: increase | circadian locomotor activity [12]: no alterations | DDIT4 protein expression level ([13]; quadricep muscle, 3 h post 50 mg/kg i.p.): 3.5 × | increase in Ddit4 expression ([13]; sedentary mice, single dose 50 mg/kg i.p., 1 h): ~3 fold | increase in Ddit4 expression, drug plus exercise ([13]; single dose 50 mg/kg i.p. and treadmill run, 1 h): ~11 fold | increase in Slc25a25 expression ([13]; single dose 50 mg/kg i.p., 1 h): 11 fold | Ddit4 gene expression [14]: induced | effect on Ddit4 expression in ERRα or ERRα/γ null myocytes ([15]; 1 μM, 2 h): lost | effect on Ddit4 expression in ERRγ null myocytes ([15]; 1 μM, 2 h): retained | Ddit4 expression, 2 h ([15]; primary mouse myocytes, 1 μM, 2 h): induced | Ddit4 induction, 24 h ([15]; primary mouse myocytes, 1 μM, 24 h): not observed | expression of Slc25a25 ([15]; primary myocytes, 1 μM, 2 h): induced | ERRα dependence of Slc25a25 responsiveness ([15]; primary myocytes, WT vs KO): completely ERRα-dependent | exercise endurance, mERRα fl/fl mice [16, 19]: significantly enhanced exercise endurance | exercise endurance, mERRα−/− mice [16, 19]: equivalent to vehicle-treated | upregulation of Ddit4 in quadriceps ([16]; mERRα fl/fl vs mERRα−/− mice): observed only in mERRα^fl/fl | Alas2 expression, mERRα fl/fl mice [16, 20]: significantly induced | Per1 expression, mERRα fl/fl mice [16, 20]: significantly induced | improving heart function [17]: very effective
